Source: patent publication US20110301146A1 (ONCOTHERAPY SCIENCE, INC., priority 2008, published 2011)

These compounds were tested against T1, GSK-3beta (Homo sapiens, UniProt P49841) (assay: Z'-LYTE kinase assay (FRET, SER/THR 9 peptide)). Details: 0.04 ng/micro-l GSK-3beta (Invitrogen), 2 micro-M SER/THR 9 peptide, 15 micro-M ATP, 1 hour at room temperature, 1% DMSO.
T1 construct: purchased Invitrogen
Assay type: biochemical
Experimental: The Z′-LYTE kinase assay kit employs a fluorescence resonance energy transfer (FRET) between two fluorophores, coumarin and fluorescein, attached to each end of a substrate peptide.
For 0% phosphorylation control, ATP was omitted from the reaction mixture. For 100% phosphorylation control, SER/THR 9 phosphopeptide was used in place of the SER/THR 9 peptide. Following 1 hour incubation at room temperature, the reaction was stopped by the addition of half assay volume of development solution and further incubated for 1 hour at room temperature. […] The extent of phosphorylation was determined according to the 0% and 100% phosphorylation control samples using the following equation: […]
IC50 values were calculated by nonlinear four parameter fit using SigmaPlot, version 10.0 (Systat Software, Inc.).

T1 sequence (P49841 whole entry): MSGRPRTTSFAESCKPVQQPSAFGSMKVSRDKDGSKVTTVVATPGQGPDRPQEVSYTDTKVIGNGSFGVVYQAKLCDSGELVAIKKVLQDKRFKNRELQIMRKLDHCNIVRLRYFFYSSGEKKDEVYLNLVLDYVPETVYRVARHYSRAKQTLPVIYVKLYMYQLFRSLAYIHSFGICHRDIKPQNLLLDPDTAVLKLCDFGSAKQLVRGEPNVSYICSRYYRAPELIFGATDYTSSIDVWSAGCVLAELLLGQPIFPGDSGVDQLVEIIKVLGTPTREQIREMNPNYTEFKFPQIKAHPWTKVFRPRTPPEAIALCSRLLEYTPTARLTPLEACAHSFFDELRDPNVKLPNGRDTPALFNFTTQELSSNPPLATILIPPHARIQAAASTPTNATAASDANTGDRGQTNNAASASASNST

| SMILES | IC50 [nM] |
| --- | --- |
| O=C(NCC1CCCNC1)c1ccc(O)c2[nH]c(C3CC4CCC3C4)nc12 (stereo not drawn) [Example 48, 2-(Bicyclo[2.2.1]heptan-2-yl)-7-hydroxy-N-(piperidin-3-ylmethyl)-1H-benzo[d]imidazole-4-carboxamide] | 68 |
| O=C(NCC1CCCCN1)c1ccc(O)c2[nH]c(C3CCCC3)nc12 (stereo not drawn) [Example 14, 2-cyclopentyl-4-hydroxy-N-(piperidin-2-ylmethyl)-1H-benzo[d]imidazole-7-carboxamide] | 1300 |
| O=C(NCC1CCCNC1)c1ccc(O)c2[nH]c(-c3cccs3)nc12 (stereo not drawn) [Example 39, 7-Hydroxy-N-(piperidin-3-ylmethyl)-2-(thiophen-2-yl)-1H-benzo[d]imidazole-4-carboxamide] | 8.6 |
| O=C(NCC1CCCCN1)c1ccc(O)c2[nH]c(-c3cccs3)nc12 (stereo not drawn) [Example 45, 7-Hydroxy-N-(piperidin-2-ylmethyl)-2-(thiophen-2-yl)-1H-benzo[d]imidazole-4-carboxamide] | 240 |
| O=C(NCC1CCCNC1)c1ccc(O)c2[nH]c(C3CC3)nc12 (stereo not drawn) [Example 6, 2-Cyclopropyl-4-hydroxy-N-(piperidin-3-yl-methyl)-1H-benzo[d]imidazole-7-carboxamide] | 1600 |
| CN1CCCC(NC(=O)c2ccc(O)c3[nH]c(-c4cccs4)nc23)C1 (stereo not drawn) [Example 41, 7-Hydroxy-N-(1-methylpiperidin-3-yl)-2-(thiophen-2-yl)-1H-benzo[d]imidazole-4-carboxamide] | 180 |
| O=C(N[C@H]1CCCNC1)c1ccc(O)c2[nH]c(C3CCCC3)nc12 [Example 16, (S)-2-Cyclopentyl-4-hydroxy-N-(piperidin-3-yl)-1H-benzo[d]imidazole-7-carboxamide] | 120 |
| O=C(NC1CCNCC1)c1ccc(O)c2[nH]c(-c3cccs3)nc12 [Example 40, 7-Hydroxy-N-(piperidin-4-yl)-2-(thiophen-2-yl)-1H-benzo[d]imidazole-4-carboxamide] | 18 |
| O=C(NCC1CCNC1)c1ccc(O)c2[nH]c(-c3cccs3)nc12 (stereo not drawn) [Example 46, 7-Hydroxy-N-(pyrrolidin-3-ylmethyl)-2-(thiophen-2-yl)-1H-benzo[d]imidazole-4-carboxamide] | 25 |
| O=C(N[C@H]1CCCNC1)c1ccc(O)c2[nH]c(C3CC4CCC3C4)nc12 (stereo partly drawn) [Example 52, 2-(Bicyclo[2.2.1]heptan-2-yl)-7-hydroxy-N-((S)-piperidin-3-yl)-1H-benzo[d]imidazole-4-carboxamide] | 150 |
| O=C(c1ccc(O)c2[nH]c(-c3cccs3)nc12)N1CCNCC1 [Example 21, (7-hydroxy-2-[thiophen-2-yl]-1H-benzo[d]imidazol-4-yl)(piperazin-1-yl)methanone] | 22000 |
| O=C(NC1CCCNC1)c1ccc(O)c2[nH]c(C3CC3)nc12 (stereo not drawn) [Example 11, 2-cyclopropyl-4-hydroxy-N-(piperidin-3-yl)-1H-benzo[d]imidazole-7-carboxamide] | 190 |
| NC12CC3CC(C1)CC(NC(=O)c1ccc(O)c4[nH]c(-c5cccs5)nc14)(C3)C2 [Example 54, 2-(Thiophene-2-yl)-7-hydroxy-N-(adamantate-3-ylamino)-1H-benzo[d]imidazole-4-carboxamide] | 330 |
| O=C(NCCN1CCNCC1)c1ccc(O)c2[nH]c(-c3cccs3)nc12 [Example 36, 7-Hydroxy-N-[2-(piperazin-1-yl)ethyl]-2-(thiophen-2-yl)-1H-benzo[d]imidazole-4-carboxamide] | 210 |
| N[C@H]1CC[C@H](NC(=O)c2ccc(O)c3[nH]c(-c4cccs4)nc23)CC1 [Example 47, N-(4-Aminocyclohexyl)-7-hydroxy-2-(thiophen-2-yl)-1H-benzo[d]imidazole-4-carboxamide] | 51 |
| O=C(N[C@H]1CCCNC1)c1ccc(O)c2[nH]c(-c3ccc(Br)s3)nc12 [Example 51, (S)-2-(5-bromothiophen-2-yl)-7-hydroxy-N-(piperidin-3-yl)-1H-benzo[d]imidazole-4-carboxamide] | 16 |
| O=C(NC1CCNCC1)c1ccc(O)c2[nH]c(C3CC3)nc12 [Example 10, 2-cyclopropyl-4-hydroxy-N-(piperidin-4-yl)-1H-benzo[d]imidazole-7-carboxamide] | 30 |
| O=C(NCC1CNC1)c1ccc(O)c2[nH]c(C3CC3)nc12 [Example 13, N-(azetidin-3-ylmethyl)-2-cyclopropyl-4-hydroxy-1H-benzo[d]imidazole-7-carboxamide] | 140 |
| O=C(NC[C@@H]1CCCNC1)c1ccc(O)c2[nH]c(Cc3cccs3)nc12 [Example 58, (R)-7-hydroxy-N-(piperidin-3-ylmethyl)-2-(thiophen-2-ylmethyl)-1H-benzo[d]imidazole-4-carboxamide] | 100 |
| O=C(NCC1CNC1)c1ccc(O)c2[nH]c(-c3cccs3)nc12 [Example 43, N-(Azetidin-3-ylmethyl)-7-hydroxy-2-(thiophen-2-yl)-1H-benzo[d]imidazole-4-carboxamide] | 43 |

| SMILES | IC50 [nM] |
| --- | --- |
| O=C(NC[C@H]1CCCNC1)c1ccc(O)c2[nH]c(Cc3cccs3)nc12 [Example 60, (S)-7-hydroxy-N-(piperidin-3-ylmethyl)-2-(thiophen-2-ylmethyl)-1H-benzo[d]imidazole-4-carboxamide] | 160 |
| NC1CCCC(NC(=O)c2ccc(O)c3[nH]c(C4CC5CCC4C5)nc23)C1 (stereo not drawn) [Example 55, N-(3-Aminocyclohexyl)-2-(bicyclo[2.2.1]heptan-2-yl)-7-hydroxy-1H-benzo[d]imidazole-4-carboxamide] | 250 |
| CN1CCCC(NC(=O)c2ccc(O)c3[nH]c(C4CC4)nc23)C1 (stereo not drawn) [Example 8, 2-cyclopropyl-4-hydroxy-N-(1-methylpiperidin-3-yl)-1H-benzo[d]imidazole-7-carboxamide] | 1300 |
| O=C(NC1CCC(C(=O)O)CC1)c1ccc(O)c2[nH]c(-c3cccs3)nc12 (stereo not drawn) [Example 72, 4-[7-hydroxy-2-(thiophen-2-yl)-1H-benzo[d]imidazole-4-carboxamido]cyclohexanecarboxylic Acid] | 12 |
| O=C(NCC1CCCNC1)c1ccc(O)c2[nH]c(-c3ccccc3)nc12 (stereo not drawn) [Example 19, 4-hydroxy-2-phenyl-N-(piperidin-3-ylmethyl)-1H-benzo[d]imidazole-7-carboxamide] | 130 |
| O=C(N[C@H]1CCCNC1)c1ccc(O)c2[nH]c(Cc3cccs3)nc12 [Example 59, (S)-7-hydroxy-N-(piperidin-3-yl)-2-(thiophen-2-ylmethyl)-1H-benzo[d]imidazole-4-carboxamide] | 170 |
| O=C(N[C@H]1CCCNC1)c1ccc(O)c2[nH]c(C3CC3)nc12 [Example 9, (S)-2-cyclopropyl-4-hydroxy-N-(piperidin-3-yl)-1H-benzo[d]imidazole-7-carboxamide] | 100 |
| N[C@H]1CC[C@@H](CNC(=O)c2ccc(O)c3[nH]c(C4CC5CCC4C5)nc23)CC1 (stereo partly drawn) [Example 56, N-{[(cis)-4-Aminocyclohexyl]methyl}-2-(bicyclo[2.2.1]heptan-2-yl)-7-hydroxy-1H-benzo[d]imidazole-4-carboxamide] | 240 |
| O=C(NCC1CCCCN1)c1ccc(O)c2[nH]c(-c3ccccc3)nc12 (stereo not drawn) [Example 18, 4-Hydroxy-2-phenyl-N-(piperidin-2-ylmethyl)-1H-benzo[d]imidazole-7-carboxamide] | 1500 |
| O=C(NCC1CCCNC1)c1ccc(O)c2[nH]c(C3CCCC3)nc12 (stereo not drawn) [Example 15, 2-Cyclopentyl-4-hydroxy-N-(piperidin-3-ylmethyl)-1H-benzo[d]imidazole-7-carboxamide] | 130 |
| NC12CC3CC(C1)CC(NC(=O)c1ccc(O)c4[nH]c(C5CC6CCC5C6)nc14)(C3)C2 (stereo not drawn) [Example 53] | 1900 |
| O=C(N[C@H]1CCCNC1)c1ccc(O)c2[nH]c(-c3ccccc3)nc12 [Example 17, (S)-4-Hydroxy-2-phenyl-N-(piperidin-3-yl)-1H-benzo[d]imidazole-7-carboxamide] | 120 |
| O=C(N[C@H]1CC[C@H](O)CC1)c1ccc(O)c2[nH]c(-c3cccs3)nc12 [Example 20, 7-Hydroxy-N-(4-hydroxycyclohexyl)-2-(thiophen-2-yl)-1H-benzo[d]imidazole-4-carboxamide] | 26 |
| O=C(NCC1CCNCC1)c1ccc(O)c2[nH]c(C3CC3)nc12 [Example 5, 2-Cyclopropyl-4-hydroxy-N-(piperidin-4-ylmethyl)-1H-benzo[d]imidazole-7-carboxamide] | 320 |
| O=C(NC1CCCNC1)c1ccc(O)c2[nH]c(C3CC4CCC3C4)nc12 (stereo not drawn) [Example 49, 2-(Bicyclo[2.2.1]heptan-2-yl)-7-hydroxy-N-(piperidin-3-yl)-1H-benzo[d]imidazole-4-carboxamide] | 230 |
| O=C(NC1CCNC1)c1ccc(O)c2[nH]c(-c3cccs3)nc12 (stereo not drawn) [Example 44, 7-Hydroxy-N-(pyrrolidin-3-yl)-2-(thiophen-2-yl)-1H-benzo[d]imidazole-4-carboxamide] | 110 |
| CC(C)(C)OC(=O)N1CCC[C@H](NC(=O)c2ccc(O)c3[nH]c(-c4ccc(Br)s4)nc23)C1 [Example 50, (S)-tert-Butyl 3-(2-(5-bromothiophen-2-yl)-7-hydroxy-1H-benzo[d]imidazole-4-carboxamido)piperidine-1-carboxylate] | 3400 |
| O=C(NCC1CCNCC1)c1ccc(O)c2[nH]c(-c3cccs3)nc12 [Example 42, 7-Hydroxy-N-(piperidin-4-ylmethyl)-2-(thiophen-2-yl)-1H-benzo[d]imidazole-4-carboxamide] | 100 |
| O=C(NC1CCNC1)c1ccc(O)c2[nH]c(C3CC3)nc12 (stereo not drawn) [Example 12, 2-cyclopropyl-4-hydroxy-N-(pyrrolidin-3-yl)-1H-benzo[d]imidazole-7-carboxamide] | 210 |
